Among the data in ChEMBL document CHEMBL1136562, “Structure-activity relationships of substituted benzothiophene-anthranilamide factor Xa inhibitors” (Bioorg Med Chem Lett, 2003) are Ki and Ki app values, retold here.

In one assay the target is Coagulation factor X (Homo sapiens, UniProt P00742). In words: Inhibition constant against human factor Xa. The conditions noted are these: read-out: Ki app.
Another assay addresses Prothrombin (Homo sapiens, UniProt P00734). In words: Inhibition constant against human thrombin. The conditions noted are these: read-out: Ki app.
Assay [1] has as its target Cationic trypsin (Bos taurus). In words: Inhibition constant against bovine trypsin.

Chain of Coagulation factor X (P00742 41-179 limits assumed): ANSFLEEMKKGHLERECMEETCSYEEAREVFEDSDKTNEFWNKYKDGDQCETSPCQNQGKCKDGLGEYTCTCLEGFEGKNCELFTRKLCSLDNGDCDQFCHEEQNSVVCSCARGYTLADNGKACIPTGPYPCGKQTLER
Chain of Coagulation factor X (P00742 235-488 limits assumed): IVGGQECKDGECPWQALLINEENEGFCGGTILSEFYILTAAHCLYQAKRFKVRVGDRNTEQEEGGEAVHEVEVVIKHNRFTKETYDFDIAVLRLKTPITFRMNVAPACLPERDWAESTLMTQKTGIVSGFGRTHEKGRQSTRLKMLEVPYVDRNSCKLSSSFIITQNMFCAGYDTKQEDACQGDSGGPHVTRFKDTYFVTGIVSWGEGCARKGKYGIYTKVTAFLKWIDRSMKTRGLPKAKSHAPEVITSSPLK

In the case of `O=C(Nc1ccc(Cl)cc1)c1cc(O)ccc1NC(=O)c1sc2ccccc2c1Cl`, the Ki at Coagulation factor X is 0.073 µM; at Prothrombin it was above 5 µM. Besides, in assay [1], the Ki app is above 5 µM.

For the compound `O=C(Nc1ccc(Cl)cc1)c1ccccc1NC(=O)c1sc2ccccc2c1Cl`, the values for the Ki on Coagulation factor X and at Prothrombin were 0.007 µM and above 5 µM, respectively. In assay [1], this compound registered a Ki app above 5 µM.

Regarding `Cc1ccc(NC(=O)c2sc3ccccc3c2Cl)c(C(=O)Nc2nccs2)c1`, the Ki on Coagulation factor X and on Prothrombin was above 5 µM each time. In assay [1], this compound yielded a Ki app above 5 µM.
